Test results from EP4745135A1 (Gluetacs Therapeutics (Shanghai) Co., Ltd., priority 2023, dated 2025).

How the values were obtained:
IKZF3 = biological target: T1, IKZF3 (Homo sapiens, UniProt Q96SW2+Q9UKT9); experiment: Western blot, degradation of substrate protein in hPBMCs; type: cell-based
T1 construct: effects of the compounds of the present disclosure on the expression of target proteins in cells; endogenous in cells; host or cells: human PBMCs (Milecell Biotechnologies)

CK1α = biological target: T2, CK1α (Homo sapiens, UniProt P48729+Q96SW2); experiment: as above; type: cell-based
T2 construct: effects of the compounds of the present disclosure on the expression of target proteins in cells; endogenous in cells; host or cells: human PBMCs (Milecell Biotechnologies)

WEE1 = biological target: T3, WEE1 (Homo sapiens, UniProt P30291+Q96SW2); experiment: as above; type: cell-based
T3 construct: effects of the compounds of the present disclosure on the expression of target proteins in cells; endogenous in cells; host or cells: human PBMCs (Milecell Biotechnologies)

IKZF1 = biological target: T4, IKZF1 (Homo sapiens, UniProt Q13422+Q96SW2); experiment: as above; type: cell-based
T4 construct: effects of the compounds of the present disclosure on the expression of target proteins in cells; endogenous in cells; host or cells: human PBMCs (Milecell Biotechnologies)

IKZF2 = biological target: T5, IKZF2 (Homo sapiens, UniProt Q96SW2+Q9UKS7); experiment: as above; type: cell-based
T5 construct: effects of the compounds of the present disclosure on the expression of target proteins in cells; endogenous in cells; host or cells: human PBMCs (Milecell Biotechnologies)

[1] = test system: Human multiple myeloma cell (MM.1S); experiment: Tumor cell proliferation inhibition (CellTiter-Meiluncell luminescent cell viability assay); details: for inhibition at 0.01 µM / inhibition at 0.5 µM / IC50: Homo sapiens, MM1.S, 96 h; for inhibition at 0.01 µM: read-out: Inhibition Rate at 10 nM (%); for inhibition at 0.5 µM: read-out: Inhibition Rate at 500 nM (%); for IC50: read-out: Inhibitory activity (IC50, nM) on tumor cell proliferation, MM.1S; for Inhibition Rate at 10 nM (%): MM.1S, 96 hours
GSPT1 = experiment: Western blot, degradation of substrate protein in hPBMCs; type: cell-based, Human
[2] = biological target: T6, human Cereblon WT GST-tagged protein (Homo sapiens, UniProt Q96SW2); experiment: CRBN-binding affinity, HTRF (CEREBLON BINDING kit); details: for inhibition at 0.5 µM: read-out: Inhibition Rate at 0.5 µM (%); for inhibition at 2 µM: read-out: Inhibition Rate at 2 µM (%); for IC50: CRBN binding, HTRF, 3 hours at room temperature, read-out: HTRF IC50
T6 construct: purchased CISBIO 64BDCRBNPEH

[3] = Western blot, 24 hours of compound treatment, compounds tested at 50 nM and 500 nM (concentration for the table not stated)
[4] = 24 hours treatment, compounds at 50 nM and 500 nM (concentration behind the class not stated)

T1 sequence (Q9UKT9 whole entry): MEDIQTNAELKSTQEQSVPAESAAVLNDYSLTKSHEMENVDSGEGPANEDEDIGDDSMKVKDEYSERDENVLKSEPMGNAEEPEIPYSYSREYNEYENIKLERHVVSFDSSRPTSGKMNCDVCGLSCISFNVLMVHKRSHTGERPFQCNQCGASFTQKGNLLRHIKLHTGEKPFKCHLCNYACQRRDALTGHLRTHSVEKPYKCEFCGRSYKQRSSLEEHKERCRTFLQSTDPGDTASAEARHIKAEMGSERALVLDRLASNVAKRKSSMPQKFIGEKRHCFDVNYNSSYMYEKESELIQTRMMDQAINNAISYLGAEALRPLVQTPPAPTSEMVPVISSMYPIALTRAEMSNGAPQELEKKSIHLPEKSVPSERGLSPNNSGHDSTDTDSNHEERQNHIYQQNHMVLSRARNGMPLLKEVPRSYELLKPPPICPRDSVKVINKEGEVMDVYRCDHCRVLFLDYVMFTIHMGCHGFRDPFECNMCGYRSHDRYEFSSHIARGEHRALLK
T1 sequence (Q96SW2 whole entry): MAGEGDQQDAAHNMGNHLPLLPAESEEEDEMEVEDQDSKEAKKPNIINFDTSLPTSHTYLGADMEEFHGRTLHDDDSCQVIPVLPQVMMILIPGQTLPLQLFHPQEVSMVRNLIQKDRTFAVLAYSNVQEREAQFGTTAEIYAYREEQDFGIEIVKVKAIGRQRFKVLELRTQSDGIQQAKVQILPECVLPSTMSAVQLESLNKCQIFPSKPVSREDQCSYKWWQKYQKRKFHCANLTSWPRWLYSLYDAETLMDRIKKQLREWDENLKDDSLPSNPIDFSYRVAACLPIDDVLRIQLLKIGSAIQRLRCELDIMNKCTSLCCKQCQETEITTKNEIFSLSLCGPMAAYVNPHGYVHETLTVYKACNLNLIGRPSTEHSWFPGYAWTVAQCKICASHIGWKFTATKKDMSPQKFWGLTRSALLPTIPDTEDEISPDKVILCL
T1 sequence (Q16531 whole entry partner): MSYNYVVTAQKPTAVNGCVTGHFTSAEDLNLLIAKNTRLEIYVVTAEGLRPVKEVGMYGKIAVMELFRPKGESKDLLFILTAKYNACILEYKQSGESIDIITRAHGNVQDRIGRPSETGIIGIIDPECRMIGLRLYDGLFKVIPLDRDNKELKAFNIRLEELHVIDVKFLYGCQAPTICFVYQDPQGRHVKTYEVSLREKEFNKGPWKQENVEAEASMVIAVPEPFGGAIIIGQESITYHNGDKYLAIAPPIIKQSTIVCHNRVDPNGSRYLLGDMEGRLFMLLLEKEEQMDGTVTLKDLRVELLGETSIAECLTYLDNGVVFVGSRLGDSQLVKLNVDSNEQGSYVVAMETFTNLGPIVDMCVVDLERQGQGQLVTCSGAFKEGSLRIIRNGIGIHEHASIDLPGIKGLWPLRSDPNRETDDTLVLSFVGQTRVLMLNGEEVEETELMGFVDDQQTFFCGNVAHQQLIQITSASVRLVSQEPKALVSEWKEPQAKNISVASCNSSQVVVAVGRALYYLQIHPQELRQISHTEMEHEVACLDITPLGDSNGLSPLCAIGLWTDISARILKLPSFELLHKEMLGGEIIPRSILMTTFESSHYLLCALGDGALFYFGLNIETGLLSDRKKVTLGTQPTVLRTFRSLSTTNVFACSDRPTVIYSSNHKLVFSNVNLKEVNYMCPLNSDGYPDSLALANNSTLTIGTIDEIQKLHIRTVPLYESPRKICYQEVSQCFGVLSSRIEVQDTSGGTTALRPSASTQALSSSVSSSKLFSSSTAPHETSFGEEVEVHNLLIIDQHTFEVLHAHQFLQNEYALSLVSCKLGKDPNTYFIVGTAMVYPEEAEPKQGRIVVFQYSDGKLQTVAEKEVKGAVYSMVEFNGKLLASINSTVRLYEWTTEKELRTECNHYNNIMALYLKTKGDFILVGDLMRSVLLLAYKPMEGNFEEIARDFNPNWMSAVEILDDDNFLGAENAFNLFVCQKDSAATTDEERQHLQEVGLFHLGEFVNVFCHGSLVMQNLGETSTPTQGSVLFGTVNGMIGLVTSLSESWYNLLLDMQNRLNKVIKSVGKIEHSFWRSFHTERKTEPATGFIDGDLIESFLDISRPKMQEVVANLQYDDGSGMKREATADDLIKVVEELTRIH
T3 sequence (P30291 whole entry): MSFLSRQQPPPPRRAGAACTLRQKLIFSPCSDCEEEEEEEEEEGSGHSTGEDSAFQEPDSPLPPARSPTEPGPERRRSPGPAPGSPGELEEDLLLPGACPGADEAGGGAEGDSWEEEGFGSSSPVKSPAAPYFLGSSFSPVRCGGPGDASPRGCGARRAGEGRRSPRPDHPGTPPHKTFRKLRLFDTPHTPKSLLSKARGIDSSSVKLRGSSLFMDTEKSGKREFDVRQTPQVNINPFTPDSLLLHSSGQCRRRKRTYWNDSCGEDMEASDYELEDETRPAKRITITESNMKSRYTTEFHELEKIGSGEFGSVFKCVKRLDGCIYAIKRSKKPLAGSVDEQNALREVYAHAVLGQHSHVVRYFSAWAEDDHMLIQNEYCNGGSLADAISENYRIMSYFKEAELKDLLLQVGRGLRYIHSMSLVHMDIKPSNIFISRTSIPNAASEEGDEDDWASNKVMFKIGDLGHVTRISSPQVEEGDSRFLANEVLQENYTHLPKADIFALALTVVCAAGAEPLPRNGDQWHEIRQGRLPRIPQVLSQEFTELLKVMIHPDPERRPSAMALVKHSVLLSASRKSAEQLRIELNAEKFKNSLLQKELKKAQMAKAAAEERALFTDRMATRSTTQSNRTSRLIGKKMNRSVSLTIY
T3 sequence (Q96SW2 whole entry): as the sequence (Q96SW2 whole entry) above
T3 sequence (Q16531 whole entry partner): as the sequence (Q16531 whole entry partner) above
T4 sequence (Q13422 whole entry): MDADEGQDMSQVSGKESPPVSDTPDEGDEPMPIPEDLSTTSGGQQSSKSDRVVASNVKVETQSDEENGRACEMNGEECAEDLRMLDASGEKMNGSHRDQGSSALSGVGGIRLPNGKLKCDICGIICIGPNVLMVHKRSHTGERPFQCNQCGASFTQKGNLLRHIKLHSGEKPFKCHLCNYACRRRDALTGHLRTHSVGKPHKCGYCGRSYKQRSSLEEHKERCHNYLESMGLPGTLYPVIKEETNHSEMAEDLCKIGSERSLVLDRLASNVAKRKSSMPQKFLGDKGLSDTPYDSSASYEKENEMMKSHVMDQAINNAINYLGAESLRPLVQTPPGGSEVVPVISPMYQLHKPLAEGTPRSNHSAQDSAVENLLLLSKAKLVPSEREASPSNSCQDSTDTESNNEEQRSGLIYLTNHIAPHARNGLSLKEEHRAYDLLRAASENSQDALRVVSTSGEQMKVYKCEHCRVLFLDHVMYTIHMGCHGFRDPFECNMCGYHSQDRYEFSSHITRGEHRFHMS
T4 sequence (Q96SW2 whole entry): as the sequence (Q96SW2 whole entry) above
T4 sequence (Q16531 whole entry partner): as the sequence (Q16531 whole entry partner) above
T5 sequence (Q9UKS7 whole entry): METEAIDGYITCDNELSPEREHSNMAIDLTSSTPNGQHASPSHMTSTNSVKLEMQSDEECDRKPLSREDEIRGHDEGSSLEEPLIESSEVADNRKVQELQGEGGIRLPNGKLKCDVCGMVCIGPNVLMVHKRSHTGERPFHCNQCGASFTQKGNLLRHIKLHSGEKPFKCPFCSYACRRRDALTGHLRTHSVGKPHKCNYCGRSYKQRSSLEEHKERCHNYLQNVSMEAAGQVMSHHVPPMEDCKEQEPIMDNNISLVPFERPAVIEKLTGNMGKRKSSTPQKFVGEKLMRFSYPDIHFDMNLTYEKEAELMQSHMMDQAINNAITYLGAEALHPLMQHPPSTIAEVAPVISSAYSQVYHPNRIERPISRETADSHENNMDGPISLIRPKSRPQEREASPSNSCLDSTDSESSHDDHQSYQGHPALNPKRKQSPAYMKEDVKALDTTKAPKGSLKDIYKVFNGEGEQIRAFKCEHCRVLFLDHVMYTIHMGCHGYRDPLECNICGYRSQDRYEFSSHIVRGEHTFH
T5 sequence (Q96SW2 whole entry): as the sequence (Q96SW2 whole entry) above
T5 sequence (Q16531 whole entry partner): as the sequence (Q16531 whole entry partner) above
T2 sequence (P48729 whole entry): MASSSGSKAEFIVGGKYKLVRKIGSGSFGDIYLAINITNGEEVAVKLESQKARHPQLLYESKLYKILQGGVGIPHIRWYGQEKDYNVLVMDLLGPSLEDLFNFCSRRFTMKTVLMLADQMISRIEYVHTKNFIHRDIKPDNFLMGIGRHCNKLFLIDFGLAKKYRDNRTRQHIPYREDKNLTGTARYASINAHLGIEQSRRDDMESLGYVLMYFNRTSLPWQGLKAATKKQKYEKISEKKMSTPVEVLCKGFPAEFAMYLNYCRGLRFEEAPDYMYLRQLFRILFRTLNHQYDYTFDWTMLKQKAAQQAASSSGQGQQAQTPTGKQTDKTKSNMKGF
T2 sequence (Q96SW2 whole entry): as the sequence (Q96SW2 whole entry) above
T2 sequence (Q16531 whole entry partner): as the sequence (Q16531 whole entry partner) above
T6 sequence (Q96SW2 whole entry): as the sequence (Q96SW2 whole entry) above

| Structure (SMILES) | IKZF3 substrate protein remaining % (IKZF3; [3]) | CK1α substrate protein remaining % (CK1α; [3]) | Wee1 substrate protein remaining % (WEE1; [3]) | IKZF 1 substrate protein remaining % (IKZF1; [3]) | IKZF2 substrate protein remaining % (IKZF2; [3]) | inhibition at 0.01 µM [1] [%] | inhibition at 0.5 µM [1] [%] | GSPT1 substrate protein remaining % (GSPT1; [3]) | inhibition at 0.5 µM [2] [%] | inhibition at 2 µM [2] [%] | IKZF3 substrate protein remaining % (IKZF3; [4]) | CK1α substrate protein remaining % (CK1α; [4]) | Wee1 substrate protein remaining % (WEE1; [4]) | IKZF 1 substrate protein remaining % (IKZF1; [4]) | IKZF2 substrate protein remaining % (IKZF2; [4]) | GSPT1 substrate protein remaining % (GSPT1; [4]) | IC50 [2] [µM] | IC50 [1] [nM] | Inhibition Rate at 10 nM (%) [1] |
| --- | --- | --- | --- | --- | --- | --- | --- | --- | --- | --- | --- | --- | --- | --- | --- | --- | --- | --- | --- |
| O=C1CCC(N2Cc3c(CN4CCN(C(c5ccccc5)c5cccnc5)CC4)cccc3C2=S)C(=O)N1 (stereo not drawn) [GT-08193, 3-(4-((4-(phenyl(pyridin-3-yl)methyl)piperazin-1-yl)methyl)-1-thioxoisoindolin-2-yl)piperidine-2,6-dione] | B (80%< substrate protein remaining %≤ 100%) | B (80%< substrate protein remaining %≤ 100%) | A (0% ≤ substrate protein remaining % ≤ 80%) | B (80%< substrate protein remaining %≤ 100%) | A (0% ≤ substrate protein remaining % ≤ 80%) | 30 to 40 | 40 to 50 | A (0% ≤ substrate protein remaining % ≤ 80%) | 30 to 40 | 53 to 60 |  |  |  |  |  |  |  |  |  |
| O=C1CCC(N2Cc3cc(CN4CCN(c5ccccc5Cl)CC4)ccc3C2=S)C(=O)N1 (stereo not drawn) [GT-08241, 3-(5-((4-(2-chlorophenyl)piperazin-1-yl)methyl)-1-thioxoisoindolin-2-yl)piperidine-2,6-dione] | B (80%< substrate protein remaining %≤ 100%) | B (80%< substrate protein remaining %≤ 100%) | B (80%< substrate protein remaining %≤ 100%) | B (80%< substrate protein remaining %≤ 100%) | B (80%< substrate protein remaining %≤ 100%) | 20 to 30 | 70 to 80 | A (0% ≤ substrate protein remaining % ≤ 80%) | 40 to 53 | 80 to 100 |  |  |  |  |  |  |  |  |  |
| O=C1CC[C@H](N2Cc3c(OCc4ccc(CN5CCOCC5)cc4)cccc3C2=S)C(=O)N1 [GT-05712, (S)-3-(4-((4-(morpholinomethyl)benzyl)oxy)-1-thioxoisoindolin-2-yl)piperidine-2,6-dione] |  |  |  |  |  | 50 to 60 | 70 to 80 |  |  |  | A (0% ≤ substrate protein remaining % ≤ 80%) | B (80%< substrate protein remaining %≤ 100%) | B (80%< substrate protein remaining %≤ 100%) | A (0% ≤ substrate protein remaining % ≤ 80%) | B (80%< substrate protein remaining %≤ 100%) | A (0% ≤ substrate protein remaining % ≤ 80%) | < 0.1 |  |  |
| O=C1CCC(N2Cc3cc(CN4C[C@@H]5C[C@H]4CN5c4cccc(Cl)c4Cl)ccc3C2=S)C(=O)N1 (stereo partly drawn) [GT-05183, 3-(5-(((1S,4S)-5-(2,3-dichlorophenyl)-2,5-diazabicyclo[2.2.1]heptan-2-yl)methyl)-1-thioxoisoindolin-2-yl)piperidine-2,6-dione] | A (0% ≤ substrate protein remaining % ≤ 80%) | B (80%< substrate protein remaining %≤ 100%) | B (80%< substrate protein remaining %≤ 100%) | B (80%< substrate protein remaining %≤ 100%) | B (80%< substrate protein remaining %≤ 100%) |  |  | A (0% ≤ substrate protein remaining % ≤ 80%) |  |  |  |  |  |  |  |  | 0.1 to 0.5 | 50 to 100 |  |
| O=C1CCC(N2Cc3cc(CN4C5CC4CN(c4cccc(Cl)c4Cl)C5)ccc3C2=S)C(=O)N1 (stereo not drawn) [GT-05182, 3-(5-((3-(2,3-dichlorophenyl)-3,6-diazabicyclo[3.1.1]heptan-6-yl)methyl)-1-thioxoisoindolin-2-yl)piperidine-2,6-dione] | B (80%< substrate protein remaining %≤ 100%) | B (80%< substrate protein remaining %≤ 100%) | A (0% ≤ substrate protein remaining % ≤ 80%) | B (80%< substrate protein remaining %≤ 100%) | B (80%< substrate protein remaining %≤ 100%) |  |  | A (0% ≤ substrate protein remaining % ≤ 80%) |  |  |  |  |  |  |  |  | 0.1 to 0.5 | 100 to 500 |  |
| COc1cccc(N2CCN(Cc3ccc4c(c3)CN(C3CCC(=O)NC3=O)C4=S)CC2)c1 (stereo not drawn) [GT-08237, 3-(5-((4-(3-methoxyphenyl)piperazin-1-yl)methyl)-1-thioxoisoindolin-2-yl)piperidine-2,6-dione] | B (80%< substrate protein remaining %≤ 100%) | B (80%< substrate protein remaining %≤ 100%) | B (80%< substrate protein remaining %≤ 100%) | B (80%< substrate protein remaining %≤ 100%) | B (80%< substrate protein remaining %≤ 100%) |  | 40 to 50 | A (0% ≤ substrate protein remaining % ≤ 80%) | 53 to 60 | 80 to 100 |  |  |  |  |  |  |  |  | 1la6 |
| O=C1CCC(N2Cc3cc(CN4CCC(c5cccc(C(F)(F)F)c5)CC4)ccc3C2=S)C(=O)N1 (stereo not drawn) [GT-08623, 3-(1-thioxo-5-((4-(3-(trifluoromethyl)phenyl)piperidin-1-yl)methyl)isoindolin-2-yl)piperidine-2,6-dione] | B (80%< substrate protein remaining %≤ 100%) | B (80%< substrate protein remaining %≤ 100%) | B (80%< substrate protein remaining %≤ 100%) | B (80%< substrate protein remaining %≤ 100%) | A (0% ≤ substrate protein remaining % ≤ 80%) | 30 to 40 | 40 to 50 | B (80%< substrate protein remaining %≤ 100%) | 40 to 53 | 80 to 100 |  |  |  |  |  |  |  |  |  |
| O=C1CCC(N2Cc3cc(CN4CC=C(c5ccnc6cc(F)ccc56)CC4)ccc3C2=S)C(=O)N1 (stereo not drawn) [GT-05245, 3-(5-((4-(7-fluoroquinolin-4-yl)-3,6-dihydropyridin-1(2H)-yl)methyl)-1-thioxoisoindolin-2-yl)piperidine-2,6-dione] | A (0% ≤ substrate protein remaining % ≤ 80%) | B (80%< substrate protein remaining %≤ 100%) | A (0% ≤ substrate protein remaining % ≤ 80%) | B (80%< substrate protein remaining %≤ 100%) | A (0% ≤ substrate protein remaining % ≤ 80%) |  |  | A (0% ≤ substrate protein remaining % ≤ 80%) |  |  |  |  |  |  |  |  | < 0.1 | 10 to 50 |  |
| Cc1ccc(C2CCN(Cc3ccc4c(c3)CN(C3CCC(=O)NC3=O)C4=S)CC2)s1 (stereo not drawn) [GT-05112, 3-(5-((4-(5-methylthiophen-2-yl)piperidin-1-yl)methyl)-1-thioxoisoindolin-2-yl)piperidine-2,6-dione] | A (0% ≤ substrate protein remaining % ≤ 80%) | B (80%< substrate protein remaining %≤ 100%) | B (80%< substrate protein remaining %≤ 100%) | A (0% ≤ substrate protein remaining % ≤ 80%) | B (80%< substrate protein remaining %≤ 100%) |  |  | A (0% ≤ substrate protein remaining % ≤ 80%) |  |  |  |  |  |  |  |  | 0.1 to 0.5 | 50 to 100 |  |
| O=C1CCC(N2Cc3cc(CN4C[C@H]5C[C@@H]4CN5c4cccc(Cl)c4Cl)ccc3C2=S)C(=O)N1 (stereo partly drawn) [GT-08477, 3-(5-(((1R,4R)-5-(2,3-dichlorophenyl)-2,5-diazabicyclo[2.2.1]heptan-2-yl)methyl)-1-thioxoisoindolin-2-yl)piperidine-2,6-dione] | A (0% ≤ substrate protein remaining % ≤ 80%) | B (80%< substrate protein remaining %≤ 100%) | B (80%< substrate protein remaining %≤ 100%) | B (80%< substrate protein remaining %≤ 100%) | B (80%< substrate protein remaining %≤ 100%) |  | 40 to 50 | A (0% ≤ substrate protein remaining % ≤ 80%) | 53 to 60 | 80 to 100 |  |  |  |  |  |  |  |  | la5 |
| O=C1CCC(N2Cc3cc(CN4CC=C(c5c[nH]c6ncccc56)CC4)ccc3C2=S)C(=O)N1 (stereo not drawn) [GT-05248, 3-(5-((4-(1H-pyrrolo[2,3-b]pyridin-3-yl)-3,6-dihydropyridin-1(2H)-yl)methyl)-1-thioxoisoindolin-2-yl)piperidine-2,6-dione] | A (0% ≤ substrate protein remaining % ≤ 80%) | B (80%< substrate protein remaining %≤ 100%) | A (0% ≤ substrate protein remaining % ≤ 80%) | A (0% ≤ substrate protein remaining % ≤ 80%) | A (0% ≤ substrate protein remaining % ≤ 80%) |  |  | A (0% ≤ substrate protein remaining % ≤ 80%) |  |  |  |  |  |  |  |  | < 0.1 | 50 to 100 |  |
